Consider four compounds from PMC11203266, “Continuous evolution of compact protein degradation tags regulated by selective molecular glues” (Science (New York, N.Y.), 2024).

In assay [1] the target is T1, DDB1•CRBN (Homo sapiens, UniProt Q96SW2).
T1 construct: made in house
Put plainly: Competitive fluorescence anisotropy (polarization) vs thalidomide-Cy5. Type of assay: binding. Here is the method:
Competitive fluorescence polarization experiments were performed according to previously reported methods ([65]). All experiments were performed in 25 mM HEPES, […], 1 mM TCEP, pH 7.4. A pre-complexed sample was prepared by incubating DDB1-CRBN (400 nM) with thalidomide–Cy5 conjugate (fig. S2A) (80 nM) at RT for 30 minutes with gentle shaking (220 rpm). […] Polarization values were measured on an Infinite M1000 Pro microplate reader (Tecan) following 1 hour of incubation at RT with gentle shaking. A total of three independent measurements were acquired and averaged per biological sample to generate the values shown in figure S2C. All mP values were normalized between 0 and 100 using the formula NormalizedmP=[(x−minimum)/[…]]∗100 , where ‘‘x’’ is the mP value of the sample and ‘‘minimum’’ and ‘‘maximum’’ are the minimum and maximum mP values, respectively, across all samples. KD values were estimated from computed Ki-values as previously described ([65]).

Assay [2] concerns degron-tagged eGFP. Put plainly: Degron-tagged eGFP degradation by flow cytometry in HEK293T cells. Type of assay: cell-based, human.
In assay [3] the target is full-length CRBN (MG-PACE circuit, SD31) (Homo sapiens, UniProt Q96SW2). Put plainly: Two-hybrid luciferase transcriptional activation in PMBN-permeabilized E. coli by compound-induced ternary complex of RR69–human full-length CRBN with ω–degron, about 1 h at 37 °C, four-parameter fit. Type of assay: cell-based, E. coli S2060. The conditions noted are these: n = 3. From the text: (§1) To evolve ZFs that engage PT-179-bound CRBN, we constructed an MG-PACE circuit using the CRBN•IMiD•ZF molecular glue complex. […] We translationally fused CRBN to the DNA-binding protein RR69 and fused SD0 to the RNAP ω-subunit, then measured transcriptional activation by luminescence (Fig. 2A).
(§2) Figure 2. […] (A) Full-length CRBN MG-PACE circuit. (B) CRBNCTD MG-PACE circuit. […] Values and error bars in (C), (E), and (H) represent the mean and standard deviation of three replicates, each normalized to a control treatment with DMSO only. Dashed vertical lines in (D), (F), and (G) represent neutral drift passages.
(§3) Chemically competent S2060 cells were co-transformed with accessory and complementary plasmids (Table S1).

For assay [4], the target named is full-length CRBN (MG-PACE circuit, SD36) (Homo sapiens, UniProt Q96SW2). The description is as above. It counts as cell-based, E. coli S2060. The conditions noted are these: n = 3.
Source text: as §1, §2, §3

For assay [5], the target named is full-length CRBN (MG-PACE circuit, SD35) (Homo sapiens, UniProt Q96SW2). The description is as above. It counts as cell-based, E. coli S2060. The conditions noted are these: n = 3.
Assay [6] concerns the target T2, mmCRBN (MG-PACE circuit, SD55) (Mus musculus, UniProt Q8C7D2).
T2 construct: gene Crbn; mouse cereblon in mmCRBN MG-PACE circuit, partner SD55 (evolved ZF degron), in E. coli
Kind of assay: Two-hybrid luciferase transcriptional activation in PMBN-permeabilized E. coli by compound-induced ternary complex of mouse CRBN with evolved degron, about 1 h at 37 °C, four-parameter fit. Type of assay: cell-based, E. coli S2060. The conditions noted are these: n = 3. From the text: (§4) Compared to human CRBN, mouse cereblon (mmCRBN) contains a V388I mutation that prevents IMiD-induced recruitment of ZF neosubstrates ([8]). The development of a potent and compact degron that is compatible with mmCRBN would facilitate studies that modulate target protein function in mouse systems. We hypothesized that MG-PACE could evolve degrons that overcome this difference in mmCRBN and respond to PT-179 in mouse cells. We constructed a mmCRBN MG-PACE circuit (Fig. 5A) and performed a total of 205 hours of PACE seeded with SD36-encoding phage (Fig. 5B).
(§5) Figure 5. MG-PACE evolves degrons that engage PT-179-bound mouse CRBN. (A) The mmCRBN MG-PACE circuit. Stringency is increased by expression of a competing ZF degron fused to maltose binding protein (MBP). (B) PACE in the mmCRBN MG-PACE circuit. (C) Mutations in evolved PT-179•mmCRBN-binding degrons. (D) PT-179-induced mmCRBN circuit activation (1 hr) by SD0 and evolved variants. […]
(§6) Chemically competent S2060 cells were co-transformed with accessory and complementary plasmids (Table S1). […] 96-well plates were then incubated in an Infinite M1000 Pro microplate reader (Tecan) at 37 °C with continuous shaking for ~1 hour prior to reading A600 nm and luminescence values. Raw luminescence values were then divided by the corresponding A600 nm values to normalize to cell density.

Assay [7] concerns the target T3, mmCRBN (MG-PACE circuit, SD56) (Mus musculus, UniProt Q8C7D2).
T3 construct: gene Crbn; mouse cereblon in mmCRBN MG-PACE circuit, partner SD56 (evolved ZF degron), in E. coli
The assay is described as above. Type of assay: cell-based, E. coli S2060. The conditions noted are these: n = 3.
Source text: as §4, §5, §6

For assay [8], the target named is FKBP12 and FRB (Homo sapiens, UniProt P42345+P62942). Kind of assay: Rapamycin-sensitive MG-PACE circuit, luciferase activation. Type of assay: cell-based, E. coli. The conditions noted are these: without PMBN.
Source text: as §3

The target of assay [9] is FRB. The conditions noted are these: read-out: KD for FRB without FKBP12; cited from earlier work.

SMILES strings stand for the structures. “Also recorded” adds a separate entry of the source.

With `O=C1CCC(N2C(=O)c3cc(F)c(N4CCOCC4)cc3C2=O)C(=O)N1` (centres unmarked) [PK-1016], the “lower affinity for CRBN than PT-179” value in assay [1] was 2 fold. For the same compound, the Kd (in general, the concentration at which binding is half-saturated) in assay [1] (competition with thalidomide–Cy5, KD estimated from Ki) was 1.01 µM. In addition, the “PK-1016-induced degradation of SD40-eGFP (in words)” value in [2] (HEK293T cells) is recorded as “poor activity; also recorded: poor degrader”.
In the case of `O=C1CCC(N2C(=O)c3ccc(N4CCOCC4)cc3C2=O)C(=O)N1` (centres unmarked) [PT-179, PT-179 (thalidomide derivative with a morpholine at the phthalimide 5-position, without the 4-amino group)], the EC50 (in general, the concentration needed to bring the measured effect to its halfway point) came out at 3.25 µM in assay [3]; 0.217 µM in assay [4]; 0.557 µM in assay [5]; 1.11 µM in assay [6]; 0.225 µM in assay [7].
Turning to `N#Cc1ccc(N2CCN(Cc3ccc(COc4cccc5c4CN([C@H]4CCC(=O)NC4=O)C5=O)cc3)CC2)c(F)c1` [mezigdomide, reference compound], the “degradation activity on SD40-tagged eGFP (in words)” value in assay [2] (fig. S11E) is recorded as “highly potent degradation activity”.
In the case of `CO[C@H]1C[C@@H]2CC[C@@H](C)[C@@](O)(O2)C(=O)C(=O)N2CCCC[C@H]2C(=O)O[C@H]([C@H](C)C[C@@H]2CC[C@@H](O)[C@H](OC)C2)CC(=O)[C@H](C)/C=C(\C)[C@@H](O)[C@@H](OC)C(=O)[C@H](C)C[C@H](C)/C=C/C=C/C=C/1C` [rapamycin], the “rapamycin concentrations at which luciferase expression was detected” value in assay [8] is over 1 µM. The Kd in assay [9] is 26 µM.
